Experimental data taken from patent publication US4933368A, “N-phenylbenzamide derivatives” (Godecke Aktiengesellschaft, priority 1983, dated 1990).
Entries after “also recorded” stand apart in the source; their conditions may differ. Read-outs that look alike come from different tables or passages of the source.

How the values were obtained:
Distribution coefficient = format: physicochemical; settings: n-octanol/water pH 7.4/20° C.; read-out: log VK (distribution coefficient)
Description: This is also the case with intragastric application, as shown by certain pharmacological effects.

allogeneic skin grafts = assay: Skin graft survival test in rhesus monkeys; format: in vivo, rhesus monkeys (Macaca mulatta); settings: for lengthening of the normal graft survival time: 10 mg/kg i.g. 1× daily for 10 days, vs normal survival stated as ten days
Experimental: Preparation: Freshly prepared before each
Route of Intragastric via stomach tube,
administration: suspended in 0.8% Methocel
Altogether four allogeneic skin grafts from two different donor animals are transferred crosswise to one unrelated receiving animal. At first the grafts are removed under ketamine narcosis from the shaven and cleaned stomach skin of the donor animals and freed of any fat attached. The four graft receptor sites are prepared on the shaven and cleaned back of the receiving animal under ketamine narcosis by removing suitably sized pieces of skin. Subsequent to successful hemostasis, the grafts are spread out on the graft receptor sites and sewn to the edges of the wound. The wound is covered with a suitable dressing material and this is fixed with an elastic bandage. The bandage is opened on the 5th, 7th, and 9th day after grafting and the function of the grafts examined. On the 9th day the bandage is no longer replaced. The graft function is then controlled daily until rejection has occurred.
Controls are dispensed within this trial on primates for ethical reasons. Comparisons are drawn with the normal survival of allogeneic skin grafts or historic controls, stated as ten days.

humoral immunoresistance = assay: Susceptibility to bacterial infections in treated rats; format: in vivo; settings: sustained period, high doses
Description: An inhibition of the humoral immune system (antibody-producing B-lymphocytes) by the substances of the invention and a possibility of therapy resulting from this, e.g., for autoaggression diseases, which are characterized by an increase in antibody production against the body's own tissues, can currently only be concluded indirectly.

L5222 leukemia = L5222 leukemia (CCLS test); format: in vivo, mice; settings: IP PO
Description: The two types of assays used were the standard CCTM test for solid tumors and the CCLS test for leukemia.
The CCLS assay assesses the antitumor activity of a test agent by measurement of the treatment-induced increase in host lifespan. Only rapidly growing tumors that kill their respective hosts in less than 30 days are appropriate for life span assays.
Test animals are appropriate Fl hybrid mice derived for the inbred strain of tumor origin. After the required mice are randomized, they receive implants (IP, IV, IC, IM, or SC) of appropriately diluted ascites fluid or dilutions of tumor brei on Day 0. […]
Test agents are dissolved or suspended in any of several vehicles and are administered by the routes and treatment schedules specified on the test protocol. All animals are monitored for signs of acute toxicity and side effects.
Survival is checked daily for each test group. Both the number dead and the number living are counted and recorded. […] Clinical signs are observed and recorded for all test groups. Group body weights are recorded at least weekly as directed in the specific test protocol. […]
Td=tumor volume doubling time (days), calculated from the slope of a log-linear least square fit of the survival time vs inoculum curve for titrated inocula of tumor cells in untreated mice.
MLS=median life span, calculated by a method appropriate for grouped observations. […]

[1] = tested on: Mammary adenocarcinoma 25; assay: Mammary adenocarcinoma 25 (CCTM test); format: in vivo, mice
Experimental: The CCTM assay assesses the antitumor activity of a test agent by measurement of the treatment-induced delay of tumor growth. Tumor growth delay is used because, unlike T/C type assays, the measured parameter is independent of time.
Test animals are Fl hybrid mice derived from the inbred strain of tumor origin. After the required mice are randomized, they receive SC implants of either trocar fragments (30-50 mg) or appropriate dilutions of tumor brei on Day 0. Samples for each donor tumor or from the final brei are incubated in thioglycolate media as a check for gross contamination of the tumor material. After tumor inoculation, the test mice are rerandomized and distributed to test group as per the specific test protocol.
Survival is checked daily for each test group. Both the number dead and the number living are counted and recorded. All dead mice are autopsied to ascertain the probable cause of death (drug or tumor). Clinical signs are observed and recorded for all test groups. Individual body weights are recorded at least weekly as directed in the specific test protocol. Each tumor is measured with calipers as per the protocol (usually two to three times/week).
Any surviving animal with a tumor that is larger than the smallest lethal control tumor for two successive measurements will be sacrificed unless:
This time may be calculated as:
Td=tumor volume doubling time (days), calculated from the slope of a long-linear least squares fit of the growth curve between 63 and 1000 mg for each control tumor. The mean value for the control group is used for all other calculations that require Td.
T,C=median time in days for the tumor in a given group to reach a predetermined evaluation size (usually 750 mg). T=treated groups/C=control group. These values are calculated by log/linear interpolation between the nearest tumor measurements on either side of the evaluation size.
T-C=tumor growth delay in days (treatment minus control).
Gross Log Kill=total number of logs of tumor cell kill produced by the given treatment regimen.
Gross Kill=(T-C)/3.32*Td)
Net Log Kill=the difference in logs between the tumor burden after the last treatment and the initial pretreatment burden. Net kill reflects the effectiveness of the overall therapy accounting for the growth of the tumor between individual treatments of the therapeutic regimen. Net kill allows valid comparisons of different treatment regimens, i.e., those with different durations of treatment that allow different amounts of tumor growth during therapy.
Net Kill=[(T-C)-DRx]/(3.32*Td)
All tumor-free survivors (cures) are excluded from the calculation of T-C and cell kill values. Thus, all calculated end points represent the response of the treatment failures.

[2] = tested on: MNU-induced rat mammary tumor; assay: MNU-induced mammary tumor (CCTR); format: in vivo; settings: for % T/C / Rating: PO, 4 times daily, Days 1-5 for 5 weeks
Description: Doses just under the acutely lethal dose can be given indefinitely (for more than 30 days), during which the treated animals regain their initial weight loss.

Lewis Lung Tumor = assay: Lewis Lung Tumor, growth retardation in mice; format: in vivo, BCBA mice; settings: for Surviving Animals: n = 5
Experimental: (§1) Preparation: As suspension freshly prepared
(§2) before each administration
(§3) Route of Oral, suspended in 0.8%
(§4) administration: Methocel
(§5) Volume: 0.01 per gram body weight
(§6) daily for 9 days, if not
Lewis Lung Tumor in BCBA mice. The procedure is the same as with osteosarcoma. The volume of the tumor was determined here at 800 mm^3 (=product of the diameters in three dimensions).

in vivo = settings: mouse, po
[3] = tested on: peripheral leukocytes and lymphocytes; assay: Influence on peripheral leukocytes and lymphocytes in rhesus monkeys; format: in vivo; settings: 1× daily 10 mg/kg i.g.
Experimental: Dosage: 1×daily 10 mg/kg i.g.
FIG. 1: Rhesus monkey ZE, .female.
FIG. 2: Rhesus monkey YL, .female.

growing hair follicle = assay: Antiproliferative activity upon topical administering to rats (hair growth); format: in vivo, Long Evans rats; settings: 0.5% solution in absolute ethanol, 5-10 mg/animal daily
Experimental: No control standard known
Preparation: Fresh before each
Route of Topically by pipetting as
administration: 0.5% solution in absolute
Volume: 1 ml per animal and dose
Tested dose: 5 mg/animal daily for 14 days
10 mg/animal daily for 7 days
A protective collar is placed on male rats of the Long Evans strain, fur color "black-hooded." A rectangle measuring 3 cm long and 1.5 cm wide is marked with the aid of a template on the dorsal skin in the region of the black dorsal hair strip subsequent to shaving and cleansing. The test solution is slowly applied dropwise to this rectangle, so as to avoid it running off onto the surrounding skin. The solvent is applied in the same manner to the control animals. After 21 days of treatment the hair growth is assessed on the treated areas compared with the control areas.

L1210 leukemia = format: in vivo, CD2 mice; settings: for Mean Survival Time: controls 8; for % Increase in Mean Survival Time (toxic death): mouse, in vivo, po
Description: as §1, §2, §3, §4, §5, §6
L 1210/Rij adaptation of L1210 leukemia in CD2 mice (C57B1×DBA2,Fl hybrid). On the day before administration of the substance 10^5 leukemic cells are inoculated intraperitoneally. The cages are controlled 2×X daily for dead animals. The terminal point is the mean survival of five mice/dosage compared with ten untreated controls.

Nc1ccc(C(=O)Nc2ccccc2N)cc1 [Substance A, 4-Amino-N-(2'-aminophenyl)-benzamide]
logD (Distribution coefficient): 2.2 | immunosuppressive action (allogeneic skin grafts; rhesus monkeys, 10 mg/kg i.g., 10 mg/kg): distinct immunosuppressive action; also recorded: markedly clear | lengthening of the normal graft survival time (allogeneic skin grafts; test animal YL): four to five | lengthening of the normal graft survival time (allogeneic skin grafts; test animal ZE): six to seven | susceptibility to bacterial infections (humoral immunoresistance): increased susceptibility to bacterial infections | % T/C (L5222 leukemia; Days 1, 4, 7, 48 mg/kg): 150% | % T/C (L5222 leukemia; Days 1-9, 15 mg/kg): 169% | % T/C ([1]; SC PO, Days 3-24, 50 mg/kg): 0% | cures ([1]; SC PO, Days 3-24, 50 mg/kg, 6 out of 10 cures): 6/10 | (T-C) tumor growth delay ([1]; SC PO, Days 25-36, 50 mg/kg): 16 days | Cell Kill Net ([1]; SC PO, Days 25-36, 50 mg/kg): 1.6 logs | anticancer activity ([1]; mammary 25): significant anticancer activity has been demonstrated and confirmed | anticancer activity ([2]; MNU-induced rat mammary tumor): significant anticancer activity has been demonstrated and confirmed | % T/C ([2]; 7.5 mg/kg): 3.5% | Rating ([2]; 7.5 mg/kg): AA (≤10% T/C High Activity) | % T/C ([2]; 10 mg/kg): 7.8% | Rating ([2]; 10 mg/kg): AA (≤10% T/C High Activity) | Surviving Animals (Lewis Lung Tumor; 1 × 240 mg/kg PO): 5/5 | Retardation in Growth of Tumor (Days) (Lewis Lung Tumor; 1 × 240 mg/kg PO, p = 0,018): 3,1 Days | Retardation in Growth of Tumor (toxic death) (Lewis Lung Tumor; 2 × 180 mg/kg PO): toxic death | Surviving Animals (Lewis Lung Tumor; 2 × 180 mg/kg PO): 0/5 | Retardation in Growth of Tumor (toxic death) (Lewis Lung Tumor; 4 × 120 mg/kg PO): toxic death | Surviving Animals (Lewis Lung Tumor; 4 × 120 mg/kg PO): 0/5 | Surviving Animals (Lewis Lung Tumor; 9 × 60 mg/kg IP, controls 5/5): 5/5 | Retardation in Growth of Tumor (Days) (Lewis Lung Tumor; 9 × 60 mg/kg IP, p = 0,061): 3,8 Days | assessment of activity (Lewis Lung Tumor; mouse, in vivo): moderate activity | LD50 at 168 h (in vivo): 625 mg/kg | reduction of the peripheral lymphocytes [3]: simultaneous distinct reduction of the peripheral lymphocytes | inhibition of hair growth / topical antiproliferative action (growing hair follicle): clear inhibition of hair growth; also recorded: distinct antiproliferate action | Mean Survival Time (L1210 leukemia; 4 × 180 mg/kg PO, n = 5): 5 days | Mean Survival Time (L1210 leukemia; 4 × 240 mg/kg PO, n = 5): 5 days | Mean Survival Time (L1210 leukemia; 7 × 120 mg/kg PO, n = 5): 6 days | % Increase in Mean Survival Time (L1210 leukemia; 9 × 60 mg/kg PO, n = 5): 38% | Mean Survival Time (L1210 leukemia; 9 × 60 mg/kg PO, n = 5): 11 days | assessment of activity (L1210 leukemia; moderate dosage): significant activity | % Increase in Mean Survival Time (toxic death) (L1210 leukemia; 120 mg/kg): toxic death | % Increase in Mean Survival Time (toxic death) (L1210 leukemia; 180 mg/kg): toxic death | % Increase in Mean Survival Time (toxic death) (L1210 leukemia; 240 mg/kg): toxic death
